Experimental data taken from patent publication US20040235900A1, “Antimicrobial oxazolifinones with improved pharmacokinetic profile and safety advantages” (priority 2002, published 2004).
Converted amounts (≈) assume the structure as drawn.

Legend:
[1] = Pharmacokinetic study, single oral dose in beagle dog; type: in vivo; details: serum, single oral dose 5 mg/kg p.o., Compound No. 4 and linezolid in 5% Tween, other compounds in cyclodextrin; for AUC(0-t): read-out: AUC (0-24 hr); for concentration at 12 hr: read-out: C-12 hr
Protocol: (§1) Oral (5 mg/kg) and intravenous (5 mg/kg bolus) pharmacokinetic studies were done in dog. Blood samples were collected at time points of 0, 0.08 (not for oral), 0.25, 0.50, 1.0, 1.5, 2.0, 3.0, 4.0, 5.0, 6.0, 8.0, 10.0, 12.0 and 24.0 hours. To facilitate i.v. dosing and collection of blood samples, the dogs were implanted with cannula in cephalic vein. Serum obtained from blood samples was used for HPLC-based analysis.
(§2) Serum samples were extracted by solid phase extraction technique using Water's OASIS HLB cartridges. An HPLC-Diode array detection system was used for analysis. Prepared samples were chromatographed on a YMC-AM reversed phase column (150×4.6 mm ID; 5 μm) using an isocratic mobile phase acetate buffer (50 mmol ammonium acetate pH 6.6) acetonitrile, 66:34% v/v (for a representative compound of the invention, 68:32% v/v for compound Nos. 30, 3, 7 and 11 of U.S. Pat. No. 5,668,286, and 75:25% v/v for linezolid) at a flow rate of 1 ml/min, measured at λmax 254 nm. Independently prepared analytical standards and quality control samples were analyzed with each set of unknown samples.
The pharmacokinetics of a representative compound of the invention following single oral dose administration of the compound in beagle dog is shown in Table 2.

[2] = Pharmacokinetic study, single I.V. bolus dose in beagle dog; type: in vivo; details: iv, single I.V. bolus dose 15 mg/kg (table title), Compound No. 4 and linezolid in 5% Tween, other compounds in cyclodextrin, serum; for concentration at 12 hr: read-out: C-12 hr; for AUC(0-t): read-out: AUC (0-24 hr)
Protocol: as §1, with “Blood” for “Oral (5 mg/kg) and intravenous (5 mg/kg bolus) pharmacokinetic studies were done in dog. Blood”
as §2
The pharmacokinetics of a representative compound of the invention following single I.V. bolus dose administration of the compound in beagle dog is shown in Table 3.

[3] = test system: Methicillin Resistant Staphylococcus aureus MRSA-32; assay: In-vitro MIC test (agar dilution), MRSA-32; type: cell-based; details: Mueller Hinton agar, 24 hrs at 35° C.; for MIC: Staphylococcus aureus, MRSA, read-out: Minimum Inhibitory Concentrations (MIC) MRSA-32
Text: (§3) The test methods used for verifying the antimicrobial action of compound within the scope of this invention are essentially the same as those described in PCT WO 95/25106, U.S. Pat. No. 5,668,286 and EP 0 750, 618 B1, with the difference that the strains of the organisms used for the MIC determinations in these patents and applications are Staphylococcus aureus ATCC 25923, Staphylococcus epidermidis ATCC 12828, Streptococcus pyogenes ATCC 19615.
(§4) The in-vitro MIC methods of test compounds were determined essentially as described in PCT WO 95/25106, U.S. Pat. No. 5,668,286 and EP 0 750 618 B1.
(§5) Overnight grown cultures of S. aureus organisms in Tryptic Soya broth were diluted in Mueller Hinton Broth to give optical density matching with MacFarland tube 0.5 standard. Cultures were further diluted 1:10 in Mueller Hinton broth. Using Denley's mutipoint inoculator, 10^4 cells were deposited on Mueller Hinton agar (Difco) containing range of 2 fold dilutions of test compounds. These plates were incubated for 24 hrs at 35° C. and MIC results recorded. MIC is defined as minimum drug concentration that inhibits test organisms. For determining MIC of test compounds against Streptococcus pneumoniae, Mueller Hinton agar containing 5% sheep blood was employed.

[4] = test system: Enterococcus faecalis ATCC 29212; assay: In-vitro MIC test (agar dilution), E. faecalis; type: cell-based; details: ATCC29212, Mueller Hinton agar, 24 hrs at 35° C., read-out: Minimum Inhibitory Concentrations (MIC) E. faecalis
Text: as §3, §4, §5

[5] = test system: Streptococcus pneumoniae ATCC 49619; assay: In-vitro MIC test (agar dilution, 5% sheep blood), S. pneumoniae; type: cell-based; details: ATCC49619, Mueller Hinton agar containing 5% sheep blood, read-out: Minimum Inhibitory Concentrations (MIC) S. pneumoniae
Text: as §3, §4, §5

MRSA 32 = assay: Murine assay procedure (systemic MRSA 32 infection, oral treatment); type: in vivo, swiss mice; details: Staphylococcus aureus; oral administration, doses 1 hr and 4 hrs after infection; MRSA 32 infected mice; percentage survival on Day 7
Protocol: Oxazolidinone new chemical entities (NCEs) were evaluated for their in vivo efficacy in a murine infection caused by multi-drug resistant, methicillin resistant Staphylococcus aureus strain, referred to as MRSA 32, a clinical isolate obtained from a hospitalised patient. The procedure used for the murine assay is as follows:
Four weeks old swiss mice of 18-22 gm body weight were infected with MRSA 32 strain suspended in 5% Hog gastric Mucin. The infecting dose of bacteria was set at 1-2×10^8 CFU/animal. The infecting dose was administered in 0.5 ml volume injected into peritonial cavity of mice. The treatment with oxazolidinone NCEs was started one hour after infection by administering 100-200 μl of the suspensions of oxazolidinone compounds in 5% Tween 80 by oral gavage. A repeat dose was similarly administered 3 hrs later. Each oxazolidinone NCE was tested at 2-3 different dosages in the range of 2.5 mg/kg to 20 mg/kg. In each dose group 6 mice were included. As an infection control group 12 mice were infected with MRSA 32 strain without giving any treatment. Normally untreated infected mice die within 24 hrs. due to the systemic spread of infection through out the animal body. […] For compounds affording protection of MRSA infected mice, ED50 dosages were calculated on the basis of percentage survival on Day 7 after infection.
The in-vivo ED50 values using the test compounds were determined essentially by the method as described in PCT WO 95/25106, U.S. Pat. No. 5,668,286 and EP 0 750 618 B1.

Row | Compound | melting point [°C] | MIC [3] [µg/mL] | MIC [4] [µg/mL] | MIC [5] [µg/mL] | also measured
1 | CC(=O)NC[C@H]1CN(c2ccc(N3CCC(O)CC3)c(F)c2)C(=O)O1 [U.S. Pat. No. 5,668,286 (No. 3), (S)-N-{3-[3-fluoro-4-(4-hydroxy-piperidin-1-yl)-phenyl]-2-oxo-oxazolidin-5-ylmethyl}-acetamide] |  |  |  |  | half-life [1]: 1.37 h; AUC(0-t) [1]: 2740 ng·h/mL; Cmax [1]: 1520 ng/mL; concentration at 12 hr [1]: 0 ng/mL; Cmax [2]: 6190 ng/mL; concentration at 12 hr [2]: 0 ng/mL; half-life [2]: 0.98 h; AUC(0-t) [2]: 7530 ng·h/mL
2 | CC(=O)NC[C@H]1CN(c2ccc(N3CCC(=NO)CC3)c(F)c2)C(=O)O1 [U.S. Pat. No. 5,668,286 (No. 11), (S)-N-{3-[3-fluoro-4-(4-hydroxyimino-piperidin-1-yl)-phenyl]-2-oxo-oxazolidin-5-ylmethyl}-acetamide] |  |  |  |  | concentration at 12 hr [1]: 0 ng/mL; Cmax [2]: 4150 ng/mL; concentration at 12 hr [2]: 0 ng/mL; half-life [2]: 0.16 h; AUC(0-t) [2]: 1320 ng·h/mL
3 | CC(=O)NC[C@H]1CN(c2ccc(N3CCC(=O)CC3)c(F)c2)C(=O)O1 [U.S. Pat. No. 5,668,286 (No. 7), (S)-N-{3-[3-fluoro-4-(4-oxo-piperidin-1-yl)-phenyl]-2-oxo-oxazolidin-5-ylmethyl}-acetamide] |  |  |  |  | concentration at 12 hr [1]: 0 ng/mL; concentration at 12 hr [2]: 0 ng/mL
4 | N#CCC1CCN(c2ccc(N3C[C@H](CNC(=O)C(F)(F)F)OC3=O)cc2F)CC1 [Compound 8, (S)-N-{3-[4-(4-cyanomethyl-piperidin-1-yl)-3-fluoro-phenyl]-2-oxo-oxazolidin-5-ylmethyl}-trifluoroacetamide] |  | 4 (≈ 9.34 µM) | 8 (≈ 18.7 µM) | 2 (≈ 4.67 µM) | 
5 | CC(=O)NC[C@H]1CN(c2ccc(N3CCC4(CC3)OCCO4)c(F)c2)C(=O)O1 [U.S. Pat. No. 5,668,286 (No. 30), (S)-N-{3-[4-(1,4-dioxa-8-aza-spiro[4.5]dec-8-yl)-3-fluoro-phenyl]-2-oxo-oxazolidin-5-ylmethyl}-acetamide] |  |  |  |  | half-life [1]: 6.68 h; AUC(0-t) [1]: 47200 ng·h/mL; Cmax [1]: 5310 ng/mL; concentration at 12 hr [1]: 1840 ng/mL; Cmax [2]: 7640 ng/mL; concentration at 12 hr [2]: 1190 ng/mL; half-life [2]: 6.71 h; AUC(0-t) [2]: 45100 ng·h/mL
6 | CC(=O)NC[C@H]1CN(c2ccc(N3CCC(CC#N)CC3)cc2)C(=O)O1 [Compound 2, (S)-N-{3-[4-(4-cyanomethyl-piperidin-1-yl)-phenyl]-2-oxo-oxazolidin-5-ylmethyl}-acetamide] |  | 2 (≈ 5.61 µM) | 2 (≈ 5.61 µM) | 2 (≈ 5.61 µM) | ED50 (MRSA 32): 20 mg/kg
7 | CC(=O)NC[C@H]1CN(c2ccc(N3CCC(CC#N)C(C)C3)c(F)c2)C(=O)O1 (stereo partly drawn) [Compound 12, (S)-N-{3-[4-((4-cyanomethyl)-3-methyl-piperidin-1-yl)-3-fluoro-phenyl]-2-oxo-oxazolidin-5-ylmethyl}-acetamide] | 148 to 149 | 2 (≈ 5.15 µM) | 2 (≈ 5.15 µM) | 2 (≈ 5.15 µM) | 
8 | CC(C)COC(=O)NC[C@H]1CN(c2ccc(N3CCC(CC#N)CC3)c(F)c2)C(=O)O1 [Compound 10, (S)-N-{3-[4-(4-cyanomethyl-piperidin-1-yl)-3-fluoro-phenyl]-2-oxo-oxazolidin-5-ylmethyl}-isobutylcarbamate] |  |  |  |  | Minimum Inhibitory Concentrations (MIC) MRSA-32 [3]: >16.0 µg/mL

Second part, led by results:

Row | melting point [°C] | MIC [3] [µg/mL] | MIC [4] [µg/mL] | MIC [5] [µg/mL] | Compound | also measured
9 | 198 to 200 |  |  |  | CC(=O)NC[C@H]1CN(c2ccc(N3CCC(C(C#N)C(=O)O)CC3)c(F)c2)C(=O)O1 (stereo partly drawn) [Compound 18, (S)-N-{3-[4-(4-(1-cyano-1-hydroxycarbonyl)-piperidin-1-yl)-3-fluoro-phenyl]-2-oxo-oxazolidin-5-ylmethyl}-acetamide] | 
10 | 147 to 148 | 2 (≈ 5.15 µM) | 2 (≈ 5.15 µM) | 2 (≈ 5.15 µM) | CC(=O)NC[C@H]1CN(c2ccc(N3CCC(C(C)C#N)CC3)c(F)c2)C(=O)O1 (stereo partly drawn) [Compound 14, (S)-N-{3-[4-(4-(1-cyanoethyl)-piperidin-1-yl)-3-fluoro-phenyl]-2-oxo-oxazolidin-5-ylmethyl}-acetamide] | 
11 | 182 to 184 | 2 (≈ 4.95 µM) | 2 (≈ 4.95 µM) | 2 (≈ 4.95 µM) | CC(=O)NC[C@H]1CN(c2ccc(N3CCC(C(C#N)CO)CC3)c(F)c2)C(=O)O1 (stereo partly drawn) [Compound 17, (S)-N-{3-[4-(4-(1-cyano-2-hydroxyethyl)-piperidin-1-yl)-3-fluoro-phenyl]-2-oxo-oxazolidin-5-ylmethyl}-acetamide] | ED50 (MRSA 32): 20 mg/kg
12 | 223 to 225 | 2 (≈ 5.01 µM) | 2 (≈ 5.01 µM) | 1 (≈ 2.5 µM) | CC(=O)NC[C@H]1CN(c2ccc(N3CCC(C(C#N)C#N)CC3)c(F)c2)C(=O)O1 [Compound 19, (S)-N-{3-[4-(4-(1,1-dicyanomethyl)-piperidin-1-yl)-3-fluoro-phenyl]-2-oxo-oxazolidin-5-ylmethyl}-acetamide] | 
13 | 185 to 186 | 4 (≈ 9.94 µM) | 4 (≈ 9.94 µM) | 2 (≈ 4.97 µM) | CCC(C#N)C1CCN(c2ccc(N3C[C@H](CNC(C)=O)OC3=O)cc2F)CC1 (stereo partly drawn) [Compound 15, (S)-N-{3-[4-(4-(1-cyanopropyl)-piperidin-1-yl)-3-fluoro-phenyl]-2-oxo-oxazolidin-5-ylmethyl}-acetamide] | 
14 | 180 to 182 | 4 (≈ 9.6 µM) | 4 (≈ 9.6 µM) | 4 (≈ 9.6 µM) | CCCC(C#N)C1CCN(c2ccc(N3C[C@H](CNC(C)=O)OC3=O)cc2F)CC1 (stereo partly drawn) [Compound 16, (S)-N-{3-[4-(4-(1-cyanobutyl)-piperidin-1-yl)-3-fluoro-phenyl]-2-oxo-oxazolidin-5-ylmethyl}-acetamide] | 
